Structures are written as SMILES.

The text below walks through data of patent publication US12521393B2, “Cytotoxicity targeting chimeras for CCR2-expressing cells” (GLAXOSMITHKLINE INTELLECTUAL PROPERTY DEVELOPMENT LIMITED, priority 2021, dated 2026).

Test [1] has as its target anti-cotinine antibody (SEQ ID NO: 11/12, rabbit variable region with human IgG1 Fc DE mutation). Briefly: SPR binding of anti-cotinine antibody to ARM compounds, Biacore T200, 37° C. (Example 202). As to conditions: SPR Biacore T200, 37° C., pH 7.4, antibody SEQ ID NO: 11/12 captured on protein A; Kd in molar. The gist of the method: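 Antibody captured on a protein A chip; ARM compounds injected at 100 μL/min (200 s association, 2000 s dissociation), 3-fold 5-point series from 200 nM, at 37 °C in HEPES pH 7.4 buffer with 0.005% P20 and 1% DMSO. Double-referenced sensorgrams fit 1:1 for kon, koff, Kd (koff/kon), residence time (1/koff); pKd averaged across runs.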
A general note: Surface plasmon resonance follows binding to a sensor surface in real time, without labels.

Test [2] concerns endogenous target monocytes in human PBMC. Description: PBMC ex vivo monocyte depletion flow cytometry assay (Example 200). In kind it is cell-based. As to conditions: with anti-cotinine antibody (SEQ ID NO: 11/12), 18-24 hours, EC50 in molar, read-out: Ex Vivo Depletion Assay pEC50 (converted). The method, boiled down:
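Monocyte depletion is reported as pEC50, averaged or given individually across runs, and read by flow cytometry staining CD45, CD14 and CD4 with a viability dye. Compounds, diluted four-fold over 11 points from 1 mM DMSO stocks, were combined with 30 μg/mL Fc-enhanced anti-cotinine antibody and human PBMC, then incubated 18-24 h at 37° C.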
Background: In flow cytometry, cells or beads pass a laser one at a time.

With `CC(C)N(C)[C@@H]1CC[C@H](N2CC[C@H](Nc3ncnc4ccc(C(F)(F)F)cc34)C2=O)[C@H](NC(=O)[C@H]2C[C@@H](NC(=O)CCOCCOCCNC(=O)CCNC(=O)[C@H]3CC(=O)N(C)[C@@H]3c3cccnc3)C2)C1` [Example 49, (2S,3S)-N-(3-((2-(2-(3-(((1S,3s)-3-(((1R,2S,5R)-5-(Isopropyl(methyl)amino)-2-((S)-2-oxo-3-((6-(trifluoromethyl)quinazolin-4-yl)amino)pyrrolidin-1-yl)cyclohexyl)carbamoyl)cyclobutyl)amino)-3-oxopropoxy)ethoxy)ethyl)amino)-3-oxopropyl)-1-methyl-5-oxo-2-(pyridin-3-yl)pyrrolidine-3-carboxamide], the “pKd of Antibody for ARM Compound of Formula (I)” value (from here on “pKd of Antibody”) in test [1] is on record as 9.191. Moreover, in test [2], the EC50 is 0.501 nM.
For `CC(C)N(C)[C@@H]1CC[C@H](N2CC[C@H](Nc3ncnc4ccc(C(F)(F)F)cc34)C2=O)[C@H](NC(=O)[C@H]2CC[C@H](NC(=O)CCCO[C@H]3CC[C@H](OCCNC(=O)[C@H]4CC(=O)N(C)[C@@H]4c4cccnc4)CC3)CC2)C1` [Example 1, (2S,3S)-N-(2-(((1R,4S)-4-(4-(((1R,4R)-4-(((1R,2S,5R)-5-(Isopropyl(methyl)amino)-2-((S)-2-oxo-3-((6-(trifluoromethyl)quinazolin-4-yl)amino)pyrrolidin-1-yl)cyclohexyl)carbamoyl)cyclohexyl)amino)-4-oxobutoxy)cyclohexyl)oxy)ethyl)-1-methyl-5-oxo-2-(pyridin-3-yl)pyrrolidine-3-carboxamide], the “pKd of Antibody” value in test [1] is 9.654. For the same compound, in test [2], the EC50 is 1.58 nM.
Turning to `CC(C)N(C)[C@@H]1CC[C@H](N2CC[C@H](Nc3ncnc4ccc(C(F)(F)F)cc34)C2=O)[C@H](NC(=O)CCNC(=O)CCCOC[C@H]2CC[C@@H](COCCNC(=O)[C@H]3CC(=O)N(C)[C@@H]3c3cccnc3)CC2)C1` [Example 62, (2S,3S)-N-(2-(((1S,4R)-4-((4-((3-(((1R,2S,5R)-5-(Isopropyl(methyl)amino)-2-((S)-2-oxo-3-((6-(trifluoromethyl)quinazolin-4-yl)amino)pyrrrolidin-1-yl)cyclohexyl)amino)-3-oxopropyl)amino)-4-oxobutoxy)methyl)cyclohexyl)methoxy)ethyl)-1-methyl-5-oxo-2-(pyridin-3-yl)pyrrolidine-3-carboxamide], the “pKd of Antibody” value in test [1] turned out to be 9.6305. Also, in test [2], the EC50 was 0.501 nM.
For `CC(C)N(C)[C@@H]1CC[C@H](N2CC[C@H](Nc3ncnc4ccc(C(F)(F)F)cc34)C2=O)[C@H](NC(=O)[C@H]2CC[C@H](NC(=O)CCCC(=O)NCCCOCCCNC(=O)[C@H]3CC(=O)N(C)[C@@H]3c3cccnc3)CC2)C1` [Example 19, N1-((1R,4r)-4-(((1R,2S,5R)-5-(Isopropyl(methyl)amino)-2-((S)-2-oxo-3-((6-(trifluoromethyl)quinazolin-4-yl)amino)pyrrolidin-1-yl)cyclohexyl)carbamoyl)cyclohexyl)-N5-(3-(3-((2S,3S)-1-methyl-5-oxo-2-(pyridin-3-yl)pyrrolidine-3-carboxamido)propoxy)propyl)glutaramide], in that order: 9.19 and 0.794 nM.
The corresponding values for `CCN1C(=O)C[C@H](C(=O)NCCOCCOCCOCCC(=O)N[C@H]2CC[C@@H](C(=O)N[C@@H]3C[C@H](N(C)C(C)C)CC[C@@H]3N3CC[C@H](Nc4ncnc5ccc(C(F)(F)F)cc45)C3=O)CC2)[C@H]1c1cccnc1` [Example 34, (2S,3S)-1-ethyl-N-(2-(2-(2-(3-((cis-4-(((1R,2S,5R)-5-(isopropyl(methyl)amino)-2-((S)-2-oxo-3-((6-(trifluoromethyl)quinazolin-4-yl)amino)pyrrolidin-1-yl)cyclohexyl)carbamoyl)cyclohexyl)amino)-3-oxopropoxy)ethoxy)ethoxy)ethyl)-5-oxo-2-(pyridin-3-yl)pyrrolidine-3-carboxamide] are 9.933 and 1.58 nM.
For `CC(C)N(C)[C@@H]1CC[C@H](N2CC[C@H](Nc3ncnc4ccc(C(F)(F)F)cc34)C2=O)[C@H](NC(=O)[C@H]2CC[C@@H](NC(=O)COCCNC(=O)COCCNC(=O)[C@H]3CC(=O)N(C)[C@@H]3c3cccnc3)CC2)C1` [Example 99, (2S,3S)-N-(2-(2-((2-(2-(((1S,4s)-4-(((1R,2S,5R)-5-(Isopropyl(methyl)amino)-2-((S)-2-oxo-3-((6-(trifluoromethyl)quinazolin-4-yl)amino)pyrrolidin-1-yl)cyclohexyl)carbamoyl)cyclohexyl)amino)-2-oxoethoxy)ethyl)amino)-2-oxoethoxy)ethyl)-1-methyl-5-oxo-2-(pyridin-3-yl)pyrrolidine-3-carboxamide], in that order: 9.062 and 0.794 nM.
Regarding `CC(C)N(C)[C@@H]1CC[C@H](N2CC[C@H](Nc3ncnc4ccc(C(F)(F)F)cc34)C2=O)[C@H](NC(=O)COCCNC(=O)COCCNC(=O)COCCNC(=O)[C@H]2CC(=O)N(C)[C@@H]2c2cccnc2)C1` [Example 111, (2S,3S)-N-(17-(((1R,2S,5R)-5-(Isopropyl(methyl)amino)-2-((S)-2-oxo-3-((6-(trifluoromethyl)quinazolin-4-yl)amino)pyrrolidin-1-yl)cyclohexyl)amino)-5,11,17-trioxo-3,9,15-trioxa-6,12-diazaheptadecyl)-1-methyl-5-oxo-2-(pyridin-3-yl)pyrrolidine-3-carboxamide], the “pKd of Antibody” value in test [1] stood at 9.0855. Besides, the EC50 in test [2] was 5.01 nM.
